In data set [1] the test system is nuclear HDAC activity (Ac-H3) in NIH-3T3 cells. Nature of the data set: Acetylation assay, Western blotting for acetylated histone 3 (Ac-H3). The class given is cell-based. As to conditions: 48hrs, Western blot. As for the experimental part:
(§1) For analyzing acetylation status of histone 3 and tubulin, NIH3T3 cells were grown to confluence in 6-well plates. After 48hrs of treatment with indicated chemicals, cells were lysed in RIPA buffer or 1% NP40/phosphate buffered saline/protease inhibitors (SIGMA, #S8820), the lysate cleared using a microcentrifuge, then 6 × sample loading buffer (Bioland Scientific) added to the supernatant. Proteins were separated on SDS-PAGE (BioRad Criterion TGX Precast Gels). Antibodies used for analyzing the blots were: acetylated tubulin (SIGMA, #T6793), tubulin, acetyl-histone H3 (Lys23), and histone H3 (Cell Signaling Technology, #2125 S, #8848 and #9717, respectively). Chemiluminescence was detected using a Li-COR Odyssey Imaging System.
(In general: Immunoblotting shows a protein as a band on a membrane.)

The subject of data set [2] is SMO-L412F in NIH3T3 (GLI-BS reporter). Nature of the data set: GLI-BS reporter assay, NIH3T3 cells with SMO-L412F DNA. The class given is cell-based. As to conditions: Mus musculus. The protocol: (§2) The HH-responsive firefly luciferase reporter (GLI-BS) and a control Renilla luciferase reporter (SV40-RL) were transfected into indicated cell lines using Effectene (Qiagen) either alone or with indicated DNAs. 24 hrs after transfection, cells were switched to low serum media (3% calf serum), and grown for another 48 hrs. in 5% CO2 in the presence/absence of compounds. 3T3-ShhFL cell line that stably expressing SHH and the two reporters were cultured in a similar fashion. FL and RL activities in lysate generated using Passive Lysis Buffer (Promega) were then assessed using the Dual-Luciferase kit (Promega) and a 96-well plate reading luminometer (BMG). The ratio of FL/RL was calculated and the averaged ratios from three replicates were reported.
In general terms: Reporter assays use an easily measured gene product as a stand-in for the process of interest.

Data set [3] has as its system SHH-induced GLI activity (GLI-BS reporter) in NIH3T3. Briefly: HH pathway reporter (GLI-BS reporter) assay, +Shh in NIH3T3. Conditions: Mus musculus; +Shh in NIH3T3, 48 hrs with compound. The class given is cell-based. As for the experimental part:
as §2

Data set [4] deals with HDAC activity (acetylated tubulin) in NIH-3T3 cells. Nature of the data set: Acetylation assay, Western blot of acetylated tubulin. As to conditions: 48hrs. The class given is cell-based. As for the experimental part: as §1
The subject of data set [5] is GLI-BS reporter in Ptch1-/- MEFs. Briefly: GLI-BS reporter assay in Ptch1-/- MEFs. The class given is cell-based. The protocol: as §2
The test system of data set [6] is RMS13 cells (GLI1 amp), GLI-BS reporter. Briefly: GLI-BS reporter assay in RMS13 cells (GLI1 amplification). The class given is cell-based. The protocol: as §2
The test system of data set [7] is SMO-M2 in NIH3T3 (GLI-BS reporter). Nature of the data set: GLI-BS reporter assay, NIH3T3 cells with SMO-M2 DNA. The format is cell-based. Conditions: Mus musculus. As for the experimental part: as §2
Data set [8] has as its system Caco-2 cells. Nature of the data set: Caco-2 transwell cell permeability assay read out with 3T3-ShhFL reporter cells. Conditions: 10μM, 6hrs, "B" CM tested on 3T3-ShhFL cells. The format is in vitro ADME. The protocol: Caco-2 cell permeability assay was previously described. Briefly, Caco-2 cells were grown to confluence in 12-well transwell plates. Culture medium was replaced with 10μM of compounds in DMEM/ 3% calf serum and incubated for 6hrs. Diluted media were added to confluent 3T3-ShhFL cells for 48hrs and measure the Hh pathway activity by reporter assay.
Background: Caco-2 monolayers are a common model of the intestinal barrier.

The subject of data set [9] is GLI1 binding to DNA in RMS13 cells. Briefly: GLI DNA binding assay (biotinylated oligo pulldown). The class given is cell-based. Conditions: lysate of RMS13 cells treated 48 hrs. As for the experimental part: A detailed protocol for DNA binding assay was previously described. Briefly, cells treated for 48 hrs with compounds were lysed in 1% NP40/phosphate buffered saline/protease inhibitors and cleared using a microcentrifuge. The lysate was then incubated with 0.5 µM of double-strand biotinylated oligonucleotides and 40 µl streptavidin-agarose bead suspension (Thermo Scientific, 20349) for 2 hrs. The streptavidin agarose beads are washed (3X) with 1% NP40/phosphate buffered saline/protease inhibitors and eluted with 2X Laemmli sample buffer. The supernatants are separated on SDS-PAGE and analyzed using western blotting. Antibodies were purchased from the following vendors: GLI1 (Cell Signaling Technology, #2534) and actin (SIGMA, #A5441).

SMILES strings stand for the structures.

Regarding `O=C(CCCCCCC(=O)Nc1ccc(Cl)c(C(=O)Nc2cccc(NC(=O)c3cc(Cl)ccc3Cl)c2)c1)NO` [IHR (meta)-SAHA], in data set [1], the “HDAC inhibitory activity, accumulation of acetylated histone 3 (ratio Ac-H3 to total H3)” value was “retain HDAC inhibitory activity”. Further, the IC50 (commonly the concentration at which inhibition is half-maximal) in data set [2] turned out to be 920 nM; in [3], 2300 nM; in [5], 2500 nM; in data set [6], 1200 nM; in [7], 850 nM. The “HDAC inhibitory activity, acetylated tubulin accumulation (ratio to total tubulin), compared with SAHA” value in data set [4] is “increase in anti-HDAC activity”.

As for `O=C(Nc1ccc(NC(=O)c2cc(Cl)ccc2Cl)cc1)c1cc(Cl)ccc1Cl` [IHR-1, reference compound], the IC50 in [3] amounted to 7 nM; in data set [5], 25 nM.

In the case of `CC(C)(C)OC(=O)NCCCCCCC(=O)Nc1ccc(Cl)c(C(=O)Nc2ccc(NC(=O)c3cc(Cl)ccc3Cl)cc2)c1` [IHR-C7], the IC50 in [3] worked out at 4 nM. Further, the “ability to transverse a cell monolayer (cell permeability)” value in data set [8] is recorded as “improved”.

As to `CC(C)(C)OC(=O)Nc1ccc(Cl)c(C(=O)Nc2ccc(NC(=O)c3cc(Cl)ccc3Cl)cc2)c1` [IHR-NBoc, tert-butyl (4-chloro-3-((4-(2,5-dichlorobenzamido)phenyl)carbamoyl)phenyl)carbamate], the IC50 in [3] is 1.9 nM.

Regarding `O=C(CCCCCCC(=O)Nc1ccccc1)NO` [SAHA, suberanilohydroxamic acid], the “GLI1 binding to immobilized oligos with consensus GLI binding sequence” value in data set [9] is given as “loss of GLI1 binding”.

The record behind these values is paper PMC5773580, “A synthetic combinatorial approach to disabling deviant Hedgehog signaling” (Scientific Reports, 2018).
